Measured values reported in PubChem BioAssay (NCI).
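In this assay, cells in 96-well plates receive the compound at five concentrations for 48 hours. Endpoints are linearly interpolated between the surrounding concentrations. TGI: concentration producing complete growth inhibition.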

What was measured:
Experiment in all cases: growth of human tumour cells (NCI), 48 h
SF-295 CNS = tested on: SF-295 CNS
OVCAR-4 ovarian = tested on: OVCAR-4 ovarian
UACC-62 melanoma = tested on: UACC-62 melanoma
ACHN renal = tested on: ACHN renal
SK-MEL-2 melanoma = tested on: SK-MEL-2 melanoma
NCI-H460 lung = tested on: NCI-H460 lung
M19-MEL melanoma = tested on: M19-MEL melanoma
HCT-15 colon = tested on: HCT-15 colon
DMS 114 small cell lung = tested on: DMS 114 small cell lung
OVCAR-5 ovarian = tested on: OVCAR-5 ovarian
LOX IMVI melanoma = tested on: LOX IMVI melanoma
786-0 renal = tested on: 786-0 renal
DLD-1 colon = tested on: DLD-1 colon
A549 NSCLC = tested on: A549 NSCLC
NCI-H23 lung = tested on: NCI-H23 lung
EKVX NSCLC = tested on: EKVX NSCLC
HCT-116 colon = tested on: HCT-116 colon
HT29 colon = tested on: HT29 colon
HOP-62 NSCLC = tested on: HOP-62 NSCLC
COLO 205 colon = tested on: COLO 205 colon
MOLT-4 leukemia = tested on: MOLT-4 leukemia
SN12C renal = tested on: SN12C renal
M14 melanoma = tested on: M14 melanoma
MALME-3M melanoma = tested on: MALME-3M melanoma
LXFL 529 NSCLC = tested on: LXFL 529 NSCLC
HCC-2998 colon = tested on: HCC-2998 colon
SF-268 CNS = tested on: SF-268 CNS
UACC-257 melanoma = tested on: UACC-257 melanoma
OVCAR-3 ovarian = tested on: OVCAR-3 ovarian
SK-OV-3 ovarian = tested on: SK-OV-3 ovarian
NCI-H226 lung = tested on: NCI-H226 lung
SNB-19 CNS = tested on: SNB-19 CNS
SR leukemia = tested on: SR leukemia
CCRF-CEM leukemia = tested on: CCRF-CEM leukemia
CAKI-1 renal = tested on: CAKI-1 renal
K-562 leukemia = tested on: K-562 leukemia
KM20L2 colon = tested on: KM20L2 colon
UO-31 renal = tested on: UO-31 renal
OVCAR-8 ovarian = tested on: OVCAR-8 ovarian
SK-MEL-28 melanoma = tested on: SK-MEL-28 melanoma
SW-620 colon = tested on: SW-620 colon
HOP-92 NSCLC = tested on: HOP-92 NSCLC
SF-539 CNS = tested on: SF-539 CNS
KM12 colon = tested on: KM12 colon
IGROV1 ovarian = tested on: IGROV1 ovarian
HL-60(TB) leukemia = tested on: HL-60(TB) leukemia
RXF 393 renal = tested on: RXF 393 renal
U251 CNS = tested on: U251 CNS
SNB-75 CNS = tested on: SNB-75 CNS
NCI/ADR-RES ovarian = tested on: NCI/ADR-RES ovarian
MDA-MB-435 = tested on: MDA-MB-435
T-47D breast = tested on: T-47D breast
MCF7 breast = tested on: MCF7 breast
PC-3 prostate = tested on: PC-3 prostate
SK-MEL-5 melanoma = tested on: SK-MEL-5 melanoma
MDA-N = tested on: MDA-N
TK-10 renal = tested on: TK-10 renal
MDA-MB-231 breast = tested on: MDA-MB-231 breast
RPMI-8226 leukemia = tested on: RPMI-8226 leukemia
DU-145 prostate = tested on: DU-145 prostate
HS 578T breast = tested on: HS 578T breast
NCI-H522 lung = tested on: NCI-H522 lung
A498 renal = tested on: A498 renal
BT-549 breast = tested on: BT-549 breast

Measured: TGI

COc1ccc(NC(=O)CC/C(CC(=O)C(C)(C)C)=N\NC(=O)C(N)=O)cc1
not listed: SNB-75 CNS | NCI/ADR-RES ovarian | MDA-MB-435 | T-47D breast | MCF7 breast | PC-3 prostate | SK-MEL-5 melanoma | MDA-N | TK-10 renal | MDA-MB-231 breast | RPMI-8226 leukemia | DU-145 prostate | HS 578T breast | NCI-H522 lung | A498 renal | BT-549 breast
> 100 µM: all other assays above

CCOP(=O)(C/C=C/Cn1nc(Br)c(=O)[nH]c1=O)OCC
not listed: M19-MEL melanoma | DMS 114 small cell lung | DLD-1 colon | LXFL 529 NSCLC | SK-OV-3 ovarian | KM20L2 colon
> 100 µM: all other assays above
